# In US8952024B2, “Herbicidal pyrimidone derivatives” (E I du Pont de Nemours and Company, priority 2009, dated 2015):
# Tests used:
# Test in all cases: Test B pre-/postemergence plant response
# Format in all cases: in vivo
# soybean (Glycine max) = settings: for Soybean plant response rating (0 to 100 scale): 62 g ai/ha, 0 is no effect, 13 to 15 days
# From the text: (§1) Seeds of plant species selected from blackgrass (Alopecurus myosuroides), downy bromegrass (Bromus tectorum), green foxtail (Setaria viridis), Italian ryegrass (Lolium multiflorum), wheat (Triticum aestivum), wild oat (Avena fatua), deadnettle (henbit deadnettle, Lamium amplexicaule), galium (catchweed bedstraw, Galium aparine), bermudagrass (Cynodon dactylon), Surinam grass (Brachiaria decumbens), cocklebur (Xanthium strumarium), corn (Zea mays), large crabgrass (Digitaria sanguinalis), woolly cupgrass (Eriochloa villosa), giant foxtail (Setaria faberii), goosegrass (Eleusine indica), johnsongrass (Sorghum halepense), kochia (Kochia scoparia), lambsquarters (Chenopodium album), morningglory (Ipomoea coccinea), nightshade (eastern black nightshade, Solanum ptycanthum), yellow nutsedge (Cyperus esculentus), pigweed (Amaranthus retroflexus), ragweed (common ragweed, Ambrosia elatior), Russian thistle (Salsola kali), soybean (Glycine max), sunflower (common oilseed sunflower, Helianthus annuus) and velvetleaf (Abutilon theophrasti) were planted into a blend of loam soil and sand and treated preemergence with test compounds formulated in a non-phytotoxic solvent mixture which included a surfactant.
# (§2) At the same time, plants selected from these crop and weed species and also winter barley (Hordeum vulgare), canarygrass (Phalaris minor), chickweed (Stellaria media) and windgrass (Apera spica-venti) were planted in pots containing Redi-Earth® planting medium (Scotts Company, 14111 Scottslawn Road, Marysville, Ohio 43041) comprising spaghnum peat moss, vermiculite, wetting agent and starter nutrients and treated with postemergence applications of some of the test chemicals formulated in the same manner. Plants ranged in height from 2 to 18 cm (1- to 4-leaf stage) for postemergence treatments.
# (§3) Treated plants and controls were maintained in a greenhouse for 13 to 15 days, after which time all treated plants were visually evaluated and compared to controls. Plant response ratings, summarized in Table B, are based on a scale of 0 to 100 where 0 is no effect and 100 is complete control. A dash (-) response means no test result.
# kochia (Kochia scoparia) = settings: for Kochia plant response rating (0 to 100 scale): 62 g ai/ha, 0 is no effect, 13 to 15 days
# From the text: as §1, §2, §3
# [1] = test system: woolly cupgrass (Eriochloa villosa); settings: for Cupgrass, Woolly plant response rating (0 to 100 scale): 62 g ai/ha, 0 is no effect, 13 to 15 days
# From the text: as §1, §2, §3
# [2] = test system: velvetleaf (Abutilon theophrasti); settings: for Velvetleaf plant response rating (0 to 100 scale): 62 g ai/ha, 0 is no effect, 13 to 15 days
# From the text: as §1, §2, §3
# corn (Zea mays) = settings: for Corn plant response rating (0 to 100 scale): 62 g ai/ha, 0 is no effect, 13 to 15 days
# From the text: as §1, §2, §3
# [3] = test system: pigweed (Amaranthus retroflexus); settings: for Pigweed plant response rating (0 to 100 scale): 62 g ai/ha, 0 is no effect, 13 to 15 days
# From the text: as §1, §2, §3
# [4] = test system: giant foxtail (Setaria faberii); settings: for Foxtail, Giant plant response rating (0 to 100 scale): 62 g ai/ha, 0 is no effect, 13 to 15 days
# From the text: as §1, §2, §3
# [5] = test system: blackgrass (Alopecurus myosuroides); settings: for Blackgrass plant response rating (0 to 100 scale): 62 g ai/ha, 0 is no effect, 13 to 15 days
# From the text: as §1, §2, §3
# [6] = test system: Surinam grass (Brachiaria decumbens); settings: for Surinam Grass plant response rating (0 to 100 scale): 62 g ai/ha, 0 is no effect, 13 to 15 days
# From the text: as §1, §2, §3
# [7] = test system: downy bromegrass (Bromus tectorum); settings: for Bromegrass, Downy plant response rating (0 to 100 scale): 62 g ai/ha, 0 is no effect, 13 to 15 days
# From the text: as §1, §2, §3
# [8] = test system: johnsongrass (Sorghum halepense); settings: for Johnsongrass plant response rating (0 to 100 scale): 62 g ai/ha, 0 is no effect, 13 to 15 days
# From the text: as §1, §2, §3
# [9] = test system: ragweed (common ragweed, Ambrosia elatior); settings: for Ragweed plant response rating (0 to 100 scale): 62 g ai/ha, 0 is no effect, 13 to 15 days
# From the text: as §1, §2, §3
# [10] = test system: Italian ryegrass (Lolium multiflorum); settings: for Ryegrass, Italian plant response rating (0 to 100 scale): 62 g ai/ha, 0 is no effect, 13 to 15 days
# From the text: as §1, §2, §3
# [11] = 31 g ai/ha, postemergence, scale 0 to 100, 0 is no effect, 100 is complete control
# [12] = postemergence, 100 is complete control
# [13] = Postemergence, 250 g ai/ha, scale 0 to 100 (0 no effect, 100 complete control)
# [14] = Postemergence, 125 g ai/ha, visual rating after 13 to 15 days, scale 0 (no effect) to 100 (complete control)
smiles,measurement,setting,value
CCCCCn1c(-c2ccccc2)ncc(C(=O)C2=C(O)CCCC2=O)c1=O [Compound 89],"Plant response rating, Soybean",soybean (Glycine max); [11],90
same,Soybean plant response rating (0 to 100 scale),soybean (Glycine max); [12],90
same,"Plant response rating, Soybean",soybean (Glycine max); [13],98
same,"Plant response rating, Kochia",kochia (Kochia scoparia); [11],65
same,Kochia plant response rating (0 to 100 scale),kochia (Kochia scoparia); [12],75
same,"Plant response rating, Kochia",kochia (Kochia scoparia); [13],100
same,"Plant response rating, Cupgrass, Woolly",[1]; [11],35
same,"Cupgrass, Woolly plant response rating (0 to 100 scale)",[1]; [12],50
same,"Plant response rating, Cupgrass, Woolly",[1]; [14],65
same,"Plant response rating, Cupgrass, Woolly",[1]; [13],75
same,"Plant response rating, Velvetleaf",[2]; [11],90
same,Velvetleaf plant response rating (0 to 100 scale),[2]; [12],95
same,"Plant response rating, Velvetleaf",[2]; [13],100
same,"Plant response rating, Corn",corn (Zea mays); [11],80
same,Corn plant response rating (0 to 100 scale),corn (Zea mays); [12],95
same,"Plant response rating, Corn",corn (Zea mays); [14],98
same,"Plant response rating, Corn",corn (Zea mays); [13],98
same,"Plant response rating, Pigweed",[3]; [11],80
same,Pigweed plant response rating (0 to 100 scale),[3]; [12],98
same,"Plant response rating, Pigweed",[3]; [13],100
same,"Plant response rating, Foxtail, Giant",[4]; [11],70
same,"Foxtail, Giant plant response rating (0 to 100 scale)",[4]; [12],85
same,"Plant response rating, Foxtail, Giant",[4]; [13],98
same,"Plant response rating, Blackgrass",[5]; [11],10
same,Blackgrass plant response rating (0 to 100 scale),[5]; [12],15
same,"Plant response rating, Blackgrass",[5]; [14],20
same,"Plant response rating, Blackgrass",[5]; [13],30
same,"Plant response rating, Surinam Grass",[6]; [11],55
same,Surinam Grass plant response rating (0 to 100 scale),[6]; [12],75
same,"Plant response rating, Surinam Grass",[6]; [13],95
same,"Plant response rating, Bromegrass, Downy",[7]; [11],0
same,"Bromegrass, Downy plant response rating (0 to 100 scale)",[7]; [12],0
same,"Plant response rating, Bromegrass, Downy",[7]; [14],5
same,"Plant response rating, Bromegrass, Downy",[7]; [13],5
same,"Plant response rating, Johnsongrass",[8]; [11],25
same,Johnsongrass plant response rating (0 to 100 scale),[8]; [12],90
same,"Plant response rating, Johnsongrass",[8]; [13],100
same,"Plant response rating, Ragweed",[9]; [11],70
same,Ragweed plant response rating (0 to 100 scale),[9]; [12],85
same,"Plant response rating, Ragweed",[9]; [13],100
same,"Plant response rating, Ryegrass, Italian",[10]; [11],0
same,"Ryegrass, Italian plant response rating (0 to 100 scale)",[10]; [12],5
same,"Plant response rating, Ryegrass, Italian",[10]; [13],30
O=C1CCCC(OC(=O)C2CC2)=C1C(=O)c1cnc(-c2ccccc2)n(-c2ccccc2)c1=O [Compound 88],"Plant response rating, Soybean",soybean (Glycine max); [11],75
same,Soybean plant response rating (0 to 100 scale),soybean (Glycine max); [12],90
same,"Plant response rating, Soybean",soybean (Glycine max); [13],98
same,"Plant response rating, Kochia",kochia (Kochia scoparia); [11],75
same,Kochia plant response rating (0 to 100 scale),kochia (Kochia scoparia); [12],75
same,"Plant response rating, Kochia",kochia (Kochia scoparia); [13],85
same,"Plant response rating, Cupgrass, Woolly",[1]; [11],75
same,"Cupgrass, Woolly plant response rating (0 to 100 scale)",[1]; [12],80
same,"Plant response rating, Cupgrass, Woolly",[1]; [14],90
same,"Plant response rating, Cupgrass, Woolly",[1]; [13],95
same,"Plant response rating, Velvetleaf",[2]; [11],80
same,Velvetleaf plant response rating (0 to 100 scale),[2]; [12],90
same,"Plant response rating, Velvetleaf",[2]; [13],98
same,"Plant response rating, Corn",corn (Zea mays); [11],15
same,Corn plant response rating (0 to 100 scale),corn (Zea mays); [12],65
same,"Plant response rating, Corn",corn (Zea mays); [14],65
same,"Plant response rating, Corn",corn (Zea mays); [13],80
same,"Plant response rating, Pigweed",[3]; [11],98
same,Pigweed plant response rating (0 to 100 scale),[3]; [12],100
same,"Plant response rating, Pigweed",[3]; [13],100
same,"Plant response rating, Foxtail, Giant",[4]; [11],95
same,"Foxtail, Giant plant response rating (0 to 100 scale)",[4]; [12],95
same,"Plant response rating, Foxtail, Giant",[4]; [13],95
same,"Plant response rating, Blackgrass",[5]; [11],0
same,Blackgrass plant response rating (0 to 100 scale),[5]; [12],5
same,"Plant response rating, Blackgrass",[5]; [14],5
same,"Plant response rating, Blackgrass",[5]; [13],10
same,"Plant response rating, Surinam Grass",[6]; [11],95
same,Surinam Grass plant response rating (0 to 100 scale),[6]; [12],95
same,"Plant response rating, Surinam Grass",[6]; [13],98
same,"Plant response rating, Bromegrass, Downy",[7]; [11],40
same,"Bromegrass, Downy plant response rating (0 to 100 scale)",[7]; [12],45
same,"Plant response rating, Bromegrass, Downy",[7]; [14],45
same,"Plant response rating, Bromegrass, Downy",[7]; [13],60
same,"Plant response rating, Johnsongrass",[8]; [11],95
same,Johnsongrass plant response rating (0 to 100 scale),[8]; [12],100
same,"Plant response rating, Johnsongrass",[8]; [13],100
same,"Plant response rating, Ragweed",[9]; [11],75
same,Ragweed plant response rating (0 to 100 scale),[9]; [12],80
same,"Plant response rating, Ragweed",[9]; [13],98
same,"Plant response rating, Ryegrass, Italian",[10]; [11],5
same,"Ryegrass, Italian plant response rating (0 to 100 scale)",[10]; [12],5
same,"Plant response rating, Ryegrass, Italian",[10]; [13],80
